{
  "source": "paper PMC5424463",
  "about": "“A strategy based on nucleotide specificity leads to a subfamily-selective and cell-active inhibitor of N ^6-methyladenosine demethylase FTO” (Chemical Science, 2014)",
  "biological_target": "T1, PHD2 (Homo sapiens, UniProt Q9GZT9)",
  "T1 construct": "Full length human PHD2 (fused to a MYC/DDK tag at C-terminal); purchased Origene Technology, USA",
  "T1 sequence (Q9GZT9 whole entry, the tested form may be a part)": "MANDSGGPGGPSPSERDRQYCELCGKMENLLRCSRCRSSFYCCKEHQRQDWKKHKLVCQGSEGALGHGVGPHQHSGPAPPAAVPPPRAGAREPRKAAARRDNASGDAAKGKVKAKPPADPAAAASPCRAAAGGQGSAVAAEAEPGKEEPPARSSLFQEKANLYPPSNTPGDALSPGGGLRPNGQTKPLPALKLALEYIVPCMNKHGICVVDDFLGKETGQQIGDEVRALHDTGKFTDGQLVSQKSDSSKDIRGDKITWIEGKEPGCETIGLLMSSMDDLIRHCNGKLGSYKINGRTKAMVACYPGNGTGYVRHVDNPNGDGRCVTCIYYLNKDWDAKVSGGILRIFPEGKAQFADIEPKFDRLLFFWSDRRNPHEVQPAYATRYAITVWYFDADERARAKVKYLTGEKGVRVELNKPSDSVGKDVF",
  "experiment": "MALDI-based inhibition assay for PHD2",
  "type": "biochemical",
  "conditions": "19-mer peptide substrate",
  "protocol": "IC50s were then calculated from the variation in percentage demethylation at different inhibitor concentrations, using nonlinear regression, with normalized dose-response fit on […]\nMALDI-based inhibition assays for FTO and ALKBH5\nThe assay was modified from previously reported method.[5] An 8-mer m6A-ssDNA substrate with the sequence 5’-TCA(m6A)CAGC-3’ (Yale University, W.M. Keck Foundation Biotechnology Resource Laboratory) was used in this inhibition assay. The assay was performed in triplicate for each inhibitor, in a final reaction volume of 25 µL. Reaction consisted of FTO (2 µM) or ALKBH5 (4 µM), 2OG (150 µM), (NH4)2Fe(SO4)2·6H2O (150 µM), L-ascorbate (2 mM), m6A-ssDNA substrate (100 µM), in 50 mM HEPES buffer, pH 7.5, and inhibitor at various concentrations (final DMSO concentration not more than 1% v/v of assay mix). The reaction was incubated at room temperature for 30 min, before 1:1 quenching with 20% v/v formic acid. 1 uL of the diluted assay mixture was then mixed with 1 uL of 3-hydroxpicolinic acid (3-HPA, the MALDI-TOF-MS matrix, Sigma-Aldrich) and spotted onto the MALDI-TOF-MS plate before analysis. The 3-HPA matrix was prepared by mixing 9 parts of 50 mg/mL 3-hydroxpicolinic acid in 50% MeCN/Milli-Q H2O with 1 part of 50 mg/mL ammonium citrate in Milli-Q H2O. […]",
  "data": [
    {"smiles": "O=C(O)/C=C/C(=O)NNC(=O)c1cnccc1Cc1ccccc1", "note": "[Compound 12]", "values": [
      {"measurement": "IC50", "value": "> 100", "unit": "µM"}
    ]}
  ]
}
